Experimental data reported in ChEMBL document CHEMBL1125116 (J Med Chem, 1990).

Biological target: D(2) dopamine receptor (Rattus norvegicus, UniProt P61169)
Experiment: Evaluated in vitro for the affinity towards Dopamine receptor D2 of rat striatal tissue

Chain of D(2) dopamine receptor (P61169 whole entry): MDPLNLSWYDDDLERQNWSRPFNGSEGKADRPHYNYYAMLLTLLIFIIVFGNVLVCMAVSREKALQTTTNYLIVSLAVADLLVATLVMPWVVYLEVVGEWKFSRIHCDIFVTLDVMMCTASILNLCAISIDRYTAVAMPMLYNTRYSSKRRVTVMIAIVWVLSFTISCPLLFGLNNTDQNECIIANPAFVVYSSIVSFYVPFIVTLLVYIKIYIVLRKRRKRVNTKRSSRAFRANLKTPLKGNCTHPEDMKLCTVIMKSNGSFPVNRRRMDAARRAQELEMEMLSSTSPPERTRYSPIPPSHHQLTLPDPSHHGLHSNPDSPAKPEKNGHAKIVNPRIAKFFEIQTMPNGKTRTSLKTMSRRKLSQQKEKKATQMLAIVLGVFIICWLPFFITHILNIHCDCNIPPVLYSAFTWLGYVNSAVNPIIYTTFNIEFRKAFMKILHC

SMILES: CCN1CCC[C@H]1CNC(=O)c1cc(I)ccc1OC [IODOPRIDE]
- Kd: 3 nM
